For 19 compounds, EC50 results are on record in patent US8574563B2 (Bristol-Myers Squibb Company, priority 2006, dated 2013).

For one experiment, the system named is HCV 1b-377-neo replicon cells. The experiment is described as follows: HCV replicon assay, HCV 1b-377-neo replicon cells (1b FRET). It is filed as cell-based, Hepatitis C virus genotype 1b. As to conditions: HCV 1b-377-neo replicon cells; HCV 1b genotype; read-out: EC50 range against HCV 1b (Table 2, Range). The method, boiled down: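 Compounds tested in HCV genotype 1b-377-neo replicon cells with a FRET read-out. Cells resistant to a reference NS5A inhibitor through a Y2065H NS5A mutation were run alongside wild-type cells.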
As to `O=C(OCc1ccccc1)N1CCN(C(C(=O)N2CCC[C@H]2c2ncc(-c3ccc(-c4ccc(-c5c[nH]c([C@@H]6CCCN6C(=O)[C@H]6CCCO6)n5)cc4)cc3)[nH]2)c2ccccc2)CC1` (single isomer, unassigned) [Example 103-6], the EC50 lay in the range of 1000 to 99000 pM. The same measure, in the same setting: as for `COC(=O)N[C@@H](C(=O)N1CCC[C@H]1c1ncc(-c2ccc(-c3ccc(-c4cnc([C@@H]5CCCN5C(=O)[C@H](C)NC(C)=O)[nH]4)cc3)cc2)[nH]1)c1ccccc1` [Example 54, methyl ((1R)-2-((2S)-2-(5-(4′-(2-((2S)-1-(N-acetyl-L-ananyl)-2-pyrrolidinyl)-1H-imidazol-5-yl)-4-biphenylyl)-1H-imidazol-2-yl)-1-pyrrolidinyl)-2-oxo-1-phenylethyl)carbamate], the figure is 1 to 999 pM.

Staying with this experiment, now noted: Hepatitis C virus, HCV 1b-377-neo replicon cells; HCV 1b genotype; read-out: EC50 range against HCV 1b (Table 2, Range).
Consider `O=C(NC1CCCC1)N[C@@H](C(=O)N1CCC[C@H]1c1ncc(-c2ccc(-c3ccc(-c4cnc([C@@H]5CCCN5C(=O)[C@H](NC(=O)NC5CCCC5)c5ccccc5)[nH]4)cc3)cc2)[nH]1)c1ccccc1` [Example 24-4d, N′,N′′′-(4,4′-biphenyldiylbis(1H-imidazole-5,2-diyl(2S)-2,1-pyrrolidinediyl((1R)-2-oxo-1-phenyl-2,1-ethanediyl)))bis(1-cyclopentylurea)], for which the EC50 lay in the range of 1 to 999 pM. Same read-out and setting: for `COC(=O)N[C@@H](Cc1ccc(CNC(C)=O)cc1)C(=O)N1CCC[C@H]1c1ncc(-c2ccc(-c3ccc(-c4cnc([C@@H]5CCCN5C(=O)[C@@H](NC(=O)OC)C(C)C)[nH]4)cc3)cc2)[nH]1` [cj-114, methyl ((1S)-1-(4-(acetamidomethyl)benzyl)-2-((2S)-2-(5-(4′-(2-((2S)-1-((2S)-2-((methoxycarbonyl)amino)-3-methylbutanoyl)-2-pyrrolidinyl)-1H-imidazol-5-yl)-4-biphenylyl)-1H-imidazol-2-yl)-1-pyrrolidinyl)-2-oxoethyl)carbamate] the value was 1 to 999 pM. Same read-out and setting: for `O=C(c1ccccc1F)N1CCC[C@H]1c1ncc(-c2ccc(-c3ccc(-c4cnc([C@@H]5CCCN5C(=O)[C@@H](c5ccccc5)N5CCCCC5)[nH]4)cc3)cc2)[nH]1` [Example 107-3, 1-((1R)-2-((2S)-2-(5-(4′-(2-((2S)-1-(2-fluorobenzoyl)-2-pyrrolidinyl)-1H-imidazol-5-yl)-4-biphenylyl)-1H-imidazol-2-yl)-1-pyrrolidinyl)-2-oxo-1-phenylethyl) piperidine] the value was 1 to 999 pM. Still for that read-out and setting: for `COC[C@H](NC(=O)OC)C(=O)N1CCC[C@H]1c1ncc(-c2ccc(-c3ccc(-c4cnc([C@@H]5CCCN5C(=O)[C@H](COC)NC(=O)OC)[nH]4)cc3)cc2)[nH]1` [Example M26, methyl ((1S)-2-((2S)-2-(5-(4′-(2-((2S)-1-(N-(methoxycarbonyl)-O-methyl-L-seryl)-2-pyrrolidinyl)-1H-imidazol-5-yl)-4-biphenylyl)-1H-imidazol-2-yl)-1-pyrrolidinyl)-1-(methoxymethyl)-2-oxoethyl)carbamate] the value was 100000 to 999000 pM.

Consider `CCN(C)[C@@H](C(=O)N1CCC[C@H]1c1ncc(-c2ccc(-c3ccc(-c4cnc([C@@H]5CCCN5C(=O)[C@@H](c5ccccc5)N(C)CC)[nH]4)cc3)cc2)[nH]1)c1ccccc1` [Example 22, (1R,1′R)-2,2′-(4,4′-biphenyldiylbis(1H-imidazole-5,2-diyl(2S)-2,1-pyrrolidinediyl))bis(N-ethyl-N-methyl-2-oxo-1-phenylethanamine)], for which the concentration giving a half-maximal response (EC50) was 1 to 999 pM. Still for that read-out and setting: as for `O=C(C(c1ccccc1)N1C2CCC1CC2)N1CCC[C@H]1c1ncc(-c2ccc(-c3ccc(-c4cnc([C@@H]5CCCN5C(=O)C(c5ccccc5)N5C6CCC5CC6)[nH]4)cc3)cc2)[nH]1` (stereo partly drawn) [Example M2, 7,7′-(4,4′-biphenyldiylbis(1H-imidazole-5,2-diyl(2S)-2,1-pyrrolidinediyl(2-oxo-1-phenyl-2,1-ethanediyl)))bis(7-azabicyclo[2.2.1]heptane)], the figure is 1000 to 99000 pM; as for `CCCN[C@@H](C(=O)N1CCC[C@H]1c1nc(-c2ccc(-c3ccc(-c4cnc([C@@H]5CCCN5C(=O)[C@H](NCCC)c5ccccc5)[nH]4)cc3)cc2)c[nH]1)c1ccccc1` [Example F16, N-((1R)-2-oxo-1-phenyl-2-((2S)-2-(4-(4′-(2-((2S)-1-((2R)-2-phenyl-2-(propylamino)acetyl)-2-pyrrolidinyl)-1H-imidazol-5-yl)-4-biphenylyl)-1H-imidazol-2-yl)-1-pyrrolidinyl)ethyl)-1-propanamine], 1 to 999 pM. As for `CN(C)Cc1ccccc1CC(=O)N1CCC[C@H]1c1ncc(-c2ccc(-c3ccc(-c4cnc([C@@H]5CCCN5C(=O)[C@@H](c5ccccc5)N5CCCCC5)[nH]4)cc3)cc2)[nH]1` [Example 107-23, N,N-dimethyl-1-(2-(2-oxo-2-((2S)-2-(5-(4′-(2-((2S)-1-((2R)-2-phenyl-2-(1-piperidinyl)acetyl)-2-pyrrolidinyl)-1H-imidazol-5-yl)-4-biphenylyl)-1H-imidazol-2-yl)-1-pyrrolidinyl)ethyl)phenyl) methanamine], the half-maximal effective concentration (EC50) was in the range of 1 to 999 pM. Same read-out and setting: for `COC(=O)NC(C(=O)N1CCC[C@H]1c1nc(-c2ccc(-c3ccc(-c4cnc([C@@H]5CCCN5C(=O)C(NC(=O)OC)C5CCOCC5)[nH]4)cc3)cc2)c[nH]1)C1CCOCC1` (stereo partly drawn) [Example F39, methyl (2-((2S)-2-(4-(4′-(2-((2S)-1-(((methoxycarbonyl)amino)(tetrahydro-2H-pyran-4-yl)acetyl)-2-pyrrolidinyl)-1H-imidazol-5-yl)-4-biphenylyl)-1H-imidazol-2-yl)-1-pyrrolidinyl)-2-oxo-1-(tetrahydro-2H-pyran-4-yl)ethyl)carbamate] the value was 1 to 999 pM. Same read-out and setting: as for `COC(=O)N[C@@H](C)C(=O)N1CCC[C@H]1c1ncc(-c2ccc(-c3ccc(-c4cnc([C@@H]5CCCN5C(=O)[C@@H](NC(=O)OC)C(C)C)[nH]4)c(F)c3)cc2F)[nH]1` [Example D57, methyl ((1S)-1-(((2S)-2-(5-(3,3′-difluoro-4′-(2-((2S)-1-(N-(methoxycarbonyl)-L-alanyl)-2-pyrrolidinyl)-1H-imidazol-5-yl)-4-biphenylyl)-1H-imidazol-2-yl)-1-pyrrolidinyl)carbonyl)-2-methylpropyl) carbamate], the figure is 1 to 999 pM. In the case of `COC(=O)N[C@@H](C(=O)N1CCC[C@H]1c1ncc(-c2ccc(-c3ccc(-c4cnc([C@@H]5CCCN5C(=O)c5cncn5C)[nH]4)cc3)cc2)[nH]1)c1ccccc1` [Example 49, methyl ((1R)-2-((2S)-2-(5-(4′-(2-((2S)-1-((1-methyl-1H-imidazol-5-yl)carbonyl)-2-pyrrolidinyl)-1H-imidazol-5-yl)-4-biphenylyl)-1H-imidazol-2-yl)-1-pyrrolidinyl)-2-oxo-1-phenylethyl)carbamate], the concentration giving a half-maximal response (EC50) was 1 to 999 pM.

Regarding `CCN(CC)[C@@H](C(=O)N1CCC[C@H]1c1ncc(-c2ccc(-c3ccc(-c4cnc([C@@H]5CCCN5C(=O)[C@@H](C)O)[nH]4)cc3)cc2)[nH]1)c1ccccc1` [Example M39, (2R)-1-((2S)-2-(5-(4′-(2-((2S)-1-((2R)-2-(diethylamino)-2-phenylacetyl)-2-pyrrolidinyl)-1H-imidazol-5-yl)-4-biphenylyl)-1H-imidazol-2-yl)-1-pyrrolidinyl)-1-oxo-2-propanol], the EC50 was 1000 to 99000 pM. The same measure, in the same setting: for `CN(C)[C@@H](C(=O)N1CCC[C@H]1c1ncc(-c2ccc(-c3ccc(-c4cnc([C@@H]5CCCN5C(=O)C(c5ccccc5)c5ccccc5)[nH]4)cc3)cc2)[nH]1)c1ccccc1` [Example 94-36, (1R)-2-((2S)-2-(5-(4′-(2-((2S)-1-(diphenylacetyl)-2-pyrrolidinyl)-1H-imidazol-5-yl)-4-biphenylyl)-1H-imidazol-2-yl)-1-pyrrolidinyl)-N,N-dimethyl-2-oxo-1-phenylethanamine] the value was 1 to 999 pM.

In the case of `CN(C)[C@@H](C(=O)N1CCC[C@H]1c1ncc(-c2ccc(-c3ccc(-c4cnc([C@@H]5CCCN5C(=O)[C@@H](c5ccccc5)N(C)C)[nH]4)nc3)cc2)[nH]1)c1ccccc1` [Example 146, (1R)-2-((2S)-2-(5-(5-(4-(2-((2S)-1-((2R)-2-(dimethylamino)-2-phenylacetyl)-2-pyrrolidinyl)-1H-imidazol-5-yl)phenyl)-2-pyridinyl)-1H-imidazol-2-yl)-1-pyrrolidinyl)-N,N-dimethyl-2-oxo-1-phenylethanamine], the EC50 is 1 to 999 pM. Same read-out and setting: for `COC(=O)N[C@@H](C(=O)N[C@@H](C)c1ncc(-c2ccc(-c3ncc(-c4cnc([C@@H]5CCCN5C(=O)[C@@H](c5ccccc5)N5CCCCC5)[nH]4)cn3)cc2)[nH]1)c1ccccc1` [Example 152l-2, methyl ((1R)-2-oxo-1-phenyl-2-(((1S)-1-(4-(4-(5-(2-((2S)-1-((2R)-2-phenyl-2-(1-piperidinyl)acetyl)-2-pyrrolidinyl)-1H-imidazol-5-yl)-2-pyrimidinyl)phenyl)-1H-imidazol-2-yl)ethyl)amino)ethyl)carbamate] the value was 1 to 999 pM; for `CC(=O)N[C@H](C(=O)N1CCC[C@H]1c1nc(-c2ccc(-c3ccc(-c4c[nH]c([C@@H]5CCCN5C(=O)[C@@H](NC(C)=O)C(C)C)n4)cc3)cc2)c[nH]1)C(C)C` [Example F60, N-((1S)-1-(((2S)-2-(4-(4′-(2-((2S)-1-((2S)-2-acetamido-3-methylbutanoyl)-2-pyrrolidinyl)-1H-imidazol-4-yl)-4-biphenylyl)-1H-imidazol-2-yl)-1-pyrrolidinyl)carbonyl)-2-methylpropyl)acetamide], 1 to 999 pM; for `COC(=O)N[C@@H](C)C(=O)N1[C@@H]2C[C@@H]2C[C@H]1c1ncc(-c2ccc(-c3ccc(-c4cnc([C@@H]5C[C@H]6C[C@H]6N5C(=O)[C@H](C)NC(=O)OC)[nH]4)cc3)cc2)[nH]1` [Example M132, methyl ((1S)-2-((1R,3S,5R)-3-(4-(4′-(2-((1R,3S,5R)-2-(N-(methoxycarbonyl)-L-alanyl)-2-azabicyclo[3.1.0]hex-3-yl)-1H-imidazol-4-yl)-4-biphenylyl)-1H-imidazol-2-yl)-2-azabicyclo[3.1.0]hex-2-yl)-1-methyl-2-oxoethyl)carbamate], 1 to 999 pM.

One may read the EC50 as the concentration giving half of the maximal effect.
